Experimental data taken from patent US20170147742A1 (priority 2014, published 2017).

Key:
[1] = system: E. coli containing the lasQS device; assay: Growth rate of E. coli containing the lasQS inducible device exposed to AHL (microplate OD600); assay type: cell-based, Escherichia coli; details: glucose 20 mM
Description: For characterizations of inducible system (lasQS device) in the vector pBbE8K, cells were first grown to stationary phase overnight in LB medium before being diluted 100× into fresh LB medium. The diluted cells were grown to exponential phase (OD600=1), washed and resuspended in supplemented minimal media with varying glucose concentration (20-0.1 mM) as mentioned earlier. Before being subjected to the microplate fluorescence assay, N-(3-Oxododecanoyl)-L-homoserine lactone (3-Oxo-C12-HSL, Sigma-Aldrich) was added to the pre-culture (Top10—pTetR-LasR-pLuxR-RFP) at varying molar concentrations of 10^−7-10^−9 M. The cell cultures were measured for their OD600 and RFP fluorescence for 6 h.
For each promoter, the three OD600 and RFP data were averaged and background absorbance (wells containing only media) and fluorescence (Top10—E8K)) were subtracted from the raw measurements to obtain OD600 and RFP time series. Measurements were obtained in mid-exponential growth and growth rates were calculated as a time derivative of the OD curves, μ=d ln(OD)/dt. The activity of the promoters (RFP synthesis rate per cell) were calculated by, d(RFP)/dt/OD600. Relative promoter units of every promoter studied were calculated by,
The lasQS device used in this study comprised three key components (FIG. 5(A)): the AHL synthetase LasI, the transcription factor LasR, and the lasI promoter. LasI produces the signaling molecule 3-O—C12-HSL (or AHL), and the LasR-AHL complex activates the lasI promoter. First, to examine the characteristics of the lasQS device, we constitutively expressed LasR using a sigma-70 promoter J23105, derived from the BioBrick parts registry (www.partsregistry.org/Part:pSB1K3). The activity of the device was indicated by red fluorescence protein (RFP), which was placed under the control of the lasI promoter. E. coli containing the lasQS device was exogenously exposed to AHL concentrations ranging from 10^−9 M to 10^−7 M and varying glucose concentrations.

[2] = system: wild-type E. coli Top10; assay: Growth rate of wild-type E. coli Top10 with transcription and translation inhibitors (microplate OD600); assay type: cell-based, Escherichia coli
Description: Seed cultures were grown in LB medium supplemented with 30 μg/ml kanamycin from freshly transformed plates and after 10 to 12 h of overnight growth, pre-cultures were inoculated in fresh LB medium at a dilution of 100× for 2 to 3 h exponential growth (OD600=0.7−1). For characterization of the promoters in the vector pBbE8K, cell cultures were grown in 5 mL of pre-warmed LB medium at 37° C. in 50 mL test tubes, shaken at 225 rpm. The culture tubes were kept in ice for about 5 min to stop further growth and were pelleted by centrifugation for 2 min at 3300 g in 4° C., washed and diluted to OD600=0.1 by resuspension in pre-warmed supplemented minimal media with different glucose concentrations ranging from 20 mM to 0.1 mM. Cultures were then […] into transparent, flat-bottom 96-well plate in triplicate aliquots of […]. The plate was incubated in 37° C. with shaking for 8 min and growth rates were monitored by measuring absorbance at 600 nm and fluorescence were monitored by measuring RFP at excitation 535 nm and emission 600 nm using Synergy HT microplate reader (Biotek) over time. Time series OD600 and RFP data were collected for every 10 min for a total run time of 6 h.
[…] The cells were subjected to a microplate assay to measure their OD600 for 6 h. Three biological replicates were used for all of the experiments conducted.
For each promoter, the three OD600 and RFP data were averaged and background absorbance (wells containing only media) and fluorescence (Top10—E8K)) were subtracted from the raw measurements to obtain OD600 and RFP time series. Measurements were obtained in mid-exponential growth and growth rates were calculated as a time derivative of the OD curves, μ=d ln(OD)/dt. The activity of the promoters (RFP synthesis rate per cell) were calculated by, d(RFP)/dt/OD600. Relative promoter units of every promoter studied were calculated by, […]

[3] = target: E. coli RNA polymerase (Escherichia coli, UniProt P0A8V2); details: used in simulations, reference (44); read-out: inhibitory potency KI; cited from earlier work
E. coli RNA polymerase, sequence (P0A8V2 whole entry): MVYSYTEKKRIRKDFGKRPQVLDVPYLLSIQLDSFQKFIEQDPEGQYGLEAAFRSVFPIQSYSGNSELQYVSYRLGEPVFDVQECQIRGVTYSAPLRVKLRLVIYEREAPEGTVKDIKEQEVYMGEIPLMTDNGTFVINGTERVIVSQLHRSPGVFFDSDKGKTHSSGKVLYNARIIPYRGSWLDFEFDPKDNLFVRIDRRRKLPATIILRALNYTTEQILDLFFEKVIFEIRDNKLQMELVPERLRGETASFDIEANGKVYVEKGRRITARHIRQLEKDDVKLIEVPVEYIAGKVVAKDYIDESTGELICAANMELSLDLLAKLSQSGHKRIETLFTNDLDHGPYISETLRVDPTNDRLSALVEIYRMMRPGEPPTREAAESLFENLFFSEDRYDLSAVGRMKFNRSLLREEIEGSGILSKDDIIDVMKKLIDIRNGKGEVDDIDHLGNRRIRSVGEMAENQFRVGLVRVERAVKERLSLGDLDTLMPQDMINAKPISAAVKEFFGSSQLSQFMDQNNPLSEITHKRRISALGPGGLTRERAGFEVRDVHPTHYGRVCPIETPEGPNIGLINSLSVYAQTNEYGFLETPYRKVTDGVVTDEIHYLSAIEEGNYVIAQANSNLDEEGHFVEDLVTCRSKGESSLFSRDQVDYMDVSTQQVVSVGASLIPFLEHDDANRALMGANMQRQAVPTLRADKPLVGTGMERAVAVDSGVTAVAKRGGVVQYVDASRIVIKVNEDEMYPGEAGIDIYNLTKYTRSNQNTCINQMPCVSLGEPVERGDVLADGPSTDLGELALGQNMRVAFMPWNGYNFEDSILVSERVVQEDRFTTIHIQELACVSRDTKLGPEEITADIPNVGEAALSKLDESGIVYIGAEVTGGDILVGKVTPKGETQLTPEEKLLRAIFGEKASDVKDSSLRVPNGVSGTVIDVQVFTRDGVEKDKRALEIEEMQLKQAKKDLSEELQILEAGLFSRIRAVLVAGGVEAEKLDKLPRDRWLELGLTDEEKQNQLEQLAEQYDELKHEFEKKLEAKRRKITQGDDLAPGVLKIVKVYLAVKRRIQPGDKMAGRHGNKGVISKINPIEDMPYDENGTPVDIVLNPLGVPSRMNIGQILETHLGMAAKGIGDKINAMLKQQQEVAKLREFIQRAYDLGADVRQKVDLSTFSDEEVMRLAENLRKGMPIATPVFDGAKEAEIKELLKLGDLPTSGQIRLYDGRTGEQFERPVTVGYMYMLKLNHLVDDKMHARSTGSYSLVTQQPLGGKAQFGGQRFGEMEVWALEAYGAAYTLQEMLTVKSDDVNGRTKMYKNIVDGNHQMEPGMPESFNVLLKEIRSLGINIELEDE
E. coli RNA polymerase, sequence (P0A8T7 whole entry partner): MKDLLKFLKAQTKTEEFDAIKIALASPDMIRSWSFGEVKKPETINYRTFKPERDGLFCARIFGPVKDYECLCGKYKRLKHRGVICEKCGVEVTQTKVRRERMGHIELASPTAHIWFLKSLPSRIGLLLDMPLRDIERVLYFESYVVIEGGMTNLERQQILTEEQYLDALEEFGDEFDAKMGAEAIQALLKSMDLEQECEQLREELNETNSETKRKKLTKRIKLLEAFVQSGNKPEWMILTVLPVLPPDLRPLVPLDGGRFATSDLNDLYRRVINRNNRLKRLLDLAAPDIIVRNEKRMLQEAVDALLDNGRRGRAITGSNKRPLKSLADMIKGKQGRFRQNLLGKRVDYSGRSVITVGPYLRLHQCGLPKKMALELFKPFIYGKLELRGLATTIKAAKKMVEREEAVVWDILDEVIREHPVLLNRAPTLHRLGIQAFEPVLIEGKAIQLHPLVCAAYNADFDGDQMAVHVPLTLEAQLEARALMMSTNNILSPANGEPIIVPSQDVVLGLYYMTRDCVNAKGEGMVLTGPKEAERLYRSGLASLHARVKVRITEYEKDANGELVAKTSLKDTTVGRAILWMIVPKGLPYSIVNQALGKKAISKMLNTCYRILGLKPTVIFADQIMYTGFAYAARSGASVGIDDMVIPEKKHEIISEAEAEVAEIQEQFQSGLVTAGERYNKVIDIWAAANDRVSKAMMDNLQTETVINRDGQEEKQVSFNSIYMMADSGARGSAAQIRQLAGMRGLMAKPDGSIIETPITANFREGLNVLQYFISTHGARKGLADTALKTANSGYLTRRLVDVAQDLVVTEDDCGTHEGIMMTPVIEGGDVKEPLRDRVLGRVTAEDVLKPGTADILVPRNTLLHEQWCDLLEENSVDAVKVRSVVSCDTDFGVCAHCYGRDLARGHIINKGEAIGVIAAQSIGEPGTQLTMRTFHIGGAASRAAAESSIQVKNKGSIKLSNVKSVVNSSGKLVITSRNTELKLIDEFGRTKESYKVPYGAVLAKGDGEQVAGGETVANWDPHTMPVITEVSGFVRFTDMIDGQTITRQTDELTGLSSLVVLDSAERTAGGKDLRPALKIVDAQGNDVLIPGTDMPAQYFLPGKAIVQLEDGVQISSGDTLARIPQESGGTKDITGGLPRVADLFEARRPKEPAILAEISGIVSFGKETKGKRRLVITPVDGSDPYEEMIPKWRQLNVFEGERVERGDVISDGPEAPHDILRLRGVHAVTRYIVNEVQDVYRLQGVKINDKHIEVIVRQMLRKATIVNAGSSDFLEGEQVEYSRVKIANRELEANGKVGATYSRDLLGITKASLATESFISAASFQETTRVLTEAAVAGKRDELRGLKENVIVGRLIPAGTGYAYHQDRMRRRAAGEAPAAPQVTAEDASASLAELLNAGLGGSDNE
E. coli RNA polymerase, sequence (P0A7Z4 whole entry partner): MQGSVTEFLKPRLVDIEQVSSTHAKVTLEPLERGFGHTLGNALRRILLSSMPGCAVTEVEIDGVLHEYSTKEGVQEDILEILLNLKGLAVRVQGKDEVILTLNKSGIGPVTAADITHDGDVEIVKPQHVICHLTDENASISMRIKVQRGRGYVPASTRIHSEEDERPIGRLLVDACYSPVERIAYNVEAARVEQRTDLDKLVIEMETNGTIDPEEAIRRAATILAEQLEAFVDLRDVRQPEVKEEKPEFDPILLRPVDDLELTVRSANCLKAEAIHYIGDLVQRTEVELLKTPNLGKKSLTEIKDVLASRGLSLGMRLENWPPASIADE
E. coli RNA polymerase, sequence (P0A800 whole entry partner): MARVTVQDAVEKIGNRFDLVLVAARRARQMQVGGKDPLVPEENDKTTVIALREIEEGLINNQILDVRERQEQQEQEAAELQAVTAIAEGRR

CCCCCCCCCC(=O)CC(=O)N[C@H]1CCOC1=O [AHL, N-(3-Oxododecanoyl)-L-homoserine lactone]
reduction in growth rate ([1]; AHL 10^−7 M): 23%
reduction in growth rate ([1]; AHL 10^−8 M): 13%
reduction in growth rate ([1]; AHL 10^−9M): 7%

CO[C@H]1/C=C/O[C@@]2(C)Oc3c(C)c(O)c4c(O)c(c(/C=N/N5CCN(C)CC5)c(O)c4c3C2=O)NC(=O)/C(C)=C\C=C\[C@H](C)[C@H](O)[C@@H](C)[C@@H](O)[C@@H](C)[C@H](OC(C)=O)[C@@H]1C [rifampicin]
growth rate ([2]; rifampicin 6 μM, maximum glucose concentration): 0.79 doublings per hour
growth rate ([2]; rifampicin 8 μM, maximum glucose concentration): 0.68 doublings per hour
growth rate ([2]; rifampicin 10 μM, maximum glucose concentration, M9 supplemented media): 0.55 doubling per hour
Ki [3]: 1 nM

CN(C)[C@@H]1C(O)=C(C(N)=O)C(=O)[C@@]2(O)C(O)=C3C(=O)c4c(O)cccc4[C@@](C)(O)[C@H]3C[C@@H]12 [tetracycline]
growth rate ([2]; tetracycline 4 μM): 0.19 doublings per hour
growth rate ([2]; tetracycline concentration of 1): 0.66 doublings per hour
growth rate ([2]; tetracycline concentration of 2): 0.38 doublings per hour
